The test system of experiment [1] is uncultured PBMC of recipient #37 and donor #36. Put plainly: IFN-γ ELISPOT assay of uncultured PBMC. It is filed as cell-based, human. To be noted: overnight incubation with 10 μg/ml peptide, mean±SD of triplicate. The source says: IFN-γ producing antigen-specific T cells were counted using IFN-γ-specific ELISPOT assays as previously described (J. Immunol. Methods 191, 131-142, 1996; J. Exp. Med. 186, 859-865, 1997). […] After 10-min reaction with BICP/NBT alkaline phosphatase substrate (SIGMA), colored spots on the dried membranes were counted using a KS-ELISPOT microscopy system (Carl Zeiss, Jena, Germany).
It was next investigated whether there are any qualitative or quantitative differences in HTLV-I-specific CTL responses among pre-HSCT #37, post-HSCT #37, and donor #36. To examine HTLV-I-specific CTL precursor cell number without experimental biases by in vitro culture, frozen stored PBMC were immediately subjected to ELISPOT assay for IFN-γ production. The results of CTL precursor in the uncultured PBMC of recipient #37 and donor #36 responding to ILT-#37 or Tax epitope are shown in Table 1. […] Values represent the mean±SD of triplicate assays. Further, the results of ELISPOT assay of IFN-γ are shown by spot forming cells (SFC) per 10^5 PBMC.

Experiment [2] relates to CTL line of post-HSCT patient #37. To be noted: LCL-#36 cells pulsed with 10 mM peptide; effector-to-target ratio 10; FIG. 3.
Method: Values represent the mean of specific lysis of triplicate assays.
Cytotoxic activities were measured by 6-hour ^51Cr-release assay at various effector-to-target (E/T) cell ratios as described previously (J. Natl. Cancer Inst. 93, 1775-1783, 2001; J. Virol. 76, 7010-7019, 2002). Specific cytotoxicity was calculated as ([experimental ^51Cr release−spontaneous ^51Cr release]/[maximum ^51Cr release−spontaneous ^51Cr release]×100%).
Experiment [3] relates to CTL induced from post-HSCT patient R07. Particulars: HLA-A24+ TOK cells pulsed with peptide; effector-to-target ratio 8; 18 hours; FIG. 5.
Method: Following 18 hours of incubation, IFN-γ in the supernatant was measured by ELISA assay. Values represent the mean of duplicate assays.
IFN-γ production by the effector cells was measured by ELISA (Human IFN-γ ELISA Kit; Endogen, Woburn, Mass.) following 18 hours of incubation with target cells at various E/T ratios in duplicate.
Subsequently, epitope mapping of these CTL was performed. […] The present inventors stained these cultured PBMCs with the tetramer of HLA-A*2402/Tax301-309.

For “LLFEEYTNI [Tax307-315, synthetic oligopeptide of HTLV-I Tax]”, in experiment [1] (PBMC of donor #36), the “IFN-γ-producing SFC/10^5 PBMC, Donor #36” value was found to be 1 ± 0.6 SFC/10^5 PBMC. Further, in experiment [1] (PBMC of post-HSCT patient #37), the “IFN-γ-producing SFC/10^5 PBMC, Post-HSCT #37” value was 2 ± 1 SFC/10^5 PBMC. The “IFN-γ-producing SFC/10^5 PBMC, Pre-HSCT #37” value in experiment [1] (PBMC of pre-HSCT patient #37) is reported as 18 ± 2 SFC/10^5 PBMC.
Regarding MAHFPGFGQSLLFGYPVYVFGDCV [Tax1-24], the “killing of peptide-pulsed LCL-#36 cells by CTL line of post-HSCT patient #37” value in experiment [2] was “selectively killed”.
Turning to SFHSLHLLFEEYTNI [Tax301-315], the “reaction with responder cells (IFN-γ production against peptide-pulsed TOK cells)” value in experiment [3] is recorded as “selectively reacted”.

Source of the values: patent US20060111551A1, “Peptide having HTLV-1-specific CTL-inducing activity” (priority 2003, published 2006).
